Patent US20110172163A1, “Novel Protease Inhibitors” (QUEENSLAND UNIVERSITY OF TECHNOLOGY, priority 2008, published 2011)
Values joined by “and” are separate entries in the source; they are usually repeats but may differ in a detail not shown here. Identical values can stand only once. Like-named read-outs stand apart in the source and are kept apart here. Bridge positions count the residues as written; N and C are the ends. Peptide text beside a SMILES is read from it. * marks the point of attachment. pNA = O=[N+]([O-])c1ccc(N*)cc1

Assays:
KLK4 [1] = target: T1, KLK4 (Homo sapiens, UniProt Q9Y5K2); experiment: Kinetic studies of para-nitroanilide substrates with KLK4; assay type: biochemical; set-up: pro-region of PSA (KLK3), replacing the native KLK4 pro-region (only if the E. coli preparation was used) (N, cleaved yes); made in house; settings: relative to the parent substrate (Bz-FVR-pNA or FVQR-pNA)
Procedure: Human recombinant KLK4 was expressed in E. coli using a previously described chimeric KLK4 plasmid construct where the native pro-region was replaced with the pro-region of PSA, enabling autoactivation. Protein was expressed as inclusion bodies which were isolated and solubilised as described previously to yield 90% pure KLK4. Protein refolding was performed by dilution into 100 volumes of refolding buffer I (2 M urea, 0.1M NaCl, 5 mM GSH, 0.5 mM GSSG, 10 mM benzamidine, 50 mM tris HCl pH 8.0, 2 mM CaCl2) over 44 hours before further dilution into 3 volumes refolding buffer II (refolding buffer I with 0.5 M urea 0.5 mM GSH, 0.05 mM GSSG, 2 mM CaCl2) over another 24 hours. Dialysis was performed as previously described (with additional 2 mM CaCl2 to reduce aggregation) before concentration using UNO sphere Q (Biorad) eluting with tris buffered saline (pH 7.5)/2 mM CaCl2. […]
Kinetic Studies Active site titration was carried out according to Beynon et al., replacing α1-proteinase inhibitor with soybean trypsin inhibitor. Enzymatic activity assays were performed with 4.9 nM KLK4 and substrate concentrations in the range of 0-600 μM in 300 μL of assay buffer with hydrolysis monitored over 5 minutes as described for the substrate screen. […]

iKLK14 = target: T2, iKLK14 (Homo sapiens, UniProt Q9P0G3); experiment: Inhibitor kinetics: KLK14 amidolytic activity; assay type: biochemical
T2 construct: made in house

bovine β-trypsin = target: T3, bovine β-trypsin (Bos taurus, UniProt P00760); experiment: Inhibitor kinetics: trypsin amidolytic activity; assay type: biochemical; settings: substrate BAPNA (0.2 mM)
T3 construct: bovine β-trypsin (20 ng); purchased Sigma Chemicals
T3 sequence (P00760 24-246): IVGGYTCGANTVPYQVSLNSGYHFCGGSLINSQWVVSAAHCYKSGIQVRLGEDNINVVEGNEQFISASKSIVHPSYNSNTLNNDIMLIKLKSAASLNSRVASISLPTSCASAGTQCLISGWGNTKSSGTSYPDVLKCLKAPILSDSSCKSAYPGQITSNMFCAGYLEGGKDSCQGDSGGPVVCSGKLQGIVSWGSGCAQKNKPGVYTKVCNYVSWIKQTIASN
Procedure: (§1) All enzymes and substrates were obtained from Sigma Chemicals if not otherwise specified. […] The release of pNa moiety was monitored as described above for 7 minutes with each point being the average of three independent triplicate reactions. IC50 was determined using the Prism 5 software suite (GraphPad software Inc.).

bovine thrombin = target: T4, bovine thrombin (Bos taurus, UniProt P00735); experiment: Inhibitor kinetics: thrombin amidolytic activity; assay type: biochemical; settings: substrate Bz-FVR-pNA (0.2 mM); read-out: IC50
T4 construct: purchased Sigma Chemicals
Procedure: as §1

human matriptase = target: T5, human matriptase (Homo sapiens, UniProt Q9Y5Y6); experiment: Inhibitor kinetics: matriptase amidolytic activity; assay type: biochemical; settings: substrate Bz-FVR-pNA (0.2 mM); read-out: IC50
T5 construct: purchased R&D Systems
T5 sequence (Q9Y5Y6 615-855 limits assumed): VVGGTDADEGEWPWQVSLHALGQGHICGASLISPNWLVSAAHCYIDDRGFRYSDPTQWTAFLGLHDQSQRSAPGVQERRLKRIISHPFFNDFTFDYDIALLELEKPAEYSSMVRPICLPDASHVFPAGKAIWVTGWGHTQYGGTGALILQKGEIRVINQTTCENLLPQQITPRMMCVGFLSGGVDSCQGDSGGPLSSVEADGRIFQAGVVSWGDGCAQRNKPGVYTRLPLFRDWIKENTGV
Procedure: as §1

bovine α-chymotrypsin = target: T6, bovine α-chymotrypsin (Bos taurus, UniProt P00766); experiment: Inhibitor kinetics: α-chymotrypsin amidolytic activity; assay type: biochemical; settings: substrate W-pNA (0.2 mM); read-out: IC50
T6 construct: purchased Sigma Chemicals
Procedure: as §1

[2] = system: protease (Streptomyces griseus type XIV); experiment: Inhibitor kinetics: Streptomyces griseus type XIV protease; assay type: biochemical; settings: substrate L-pNA
Procedure: as §1

KLK12 = KLK12 (Homo sapiens, UniProt Q9UKR0); experiment: Protein proteolysis: fibrinogen digestion by KLK12; assay type: biochemical; settings: at a concentration of 10000 nM
KLK14 = KLK14 (Homo sapiens, UniProt Q9P0G3); experiment: Protein proteolysis: fibrinogen digestion by KLK14; assay type: biochemical; settings: at a concentration of 10000 nM
[3] = Stability of SFTI variants in contact with prostate cancer cells in vitro; assay type: in vitro ADME; settings: prostate cancer cell lines in serum containing medium
Procedure: Cell monolayers of LNCaP, 22Rv1 and PC3 cells were established in RPMI 1640 medium containing 10% fetal calf serum. Each cell line was treated +/−1 μM SFTI-FCQR contained in 4.0 mL RPMI media (as above) with a vehicle control to account for inhibition by intrinsic media factors. 25 μL samples of media were taken at 0, 24, 48, 72, 96 and 120 hrs timepoints. Media samples were boiled at 97° C. for 15 min, centrifuged at 14,000 rpm for 5 min to remove cellular debris and precipitated protein. Residual SFTI-FCQR inhibitory activity in the medium was determined against recombinant KLK4 using FVQR-pNA as a peptide substrate as above using 15ng KLK4 and 30 nmol FVQR-pNA with 2.5 μL and […] of media+/−SFTI-FCQR added from each treatment.

Figure 3 (D) = experiment: Figure 3 (D)
Procedure: Table printed on a drawing sheet, Figure 3 (D)
The patent's description of the figure: FIG. 3. Stability of SFTI variants in contact with prostate cancer cells in vitro. Residual SFTI-FCQR was assayed in tissue culture supernatants from prostate cancer cells treated with a single dose of inhibitor at time =0. Stability was assessed against LNCaP (closed circles), 22RV1 (open circles) and PC3 cells (triangles) for (A) SFTI-FCQR, (B) SFTI-FCQR Asn14 and (C) SFTI-FCQR Lys14 as summarized in (D). Data represented as mean±SEM from three independent experiments in triplicates.
First reader's note: Half-life of residual inhibitor activity in culture supernatants of prostate cancer cell lines, summarising panels (A)-(C).

KLK4 [4] = target: T1, KLK4; experiment: Inhibitor kinetics: KLK4 amidolytic activity with peptide-pNA substrates; assay type: biochemical; set-up: pro-region of PSA (KLK3), replacing the native KLK4 pro-region (N, cleaved yes); made in house
Procedure: (§2) Human recombinant KLK4 was expressed in E. coli using a previously described chimeric KLK4 plasmid construct where the native pro-region was replaced with the pro-region of PSA, enabling autoactivation. Protein was expressed as inclusion bodies which were isolated and solubilised as described previously to yield 90% pure KLK4. Protein refolding was performed by dilution into 100 volumes of refolding buffer I (2 M urea, 0.1M NaCl, 5 mM GSH, 0.5 mM GSSG, 10 mM benzamidine, 50 mM tris HCl pH 8.0, 2 mM CaCl2) over 44 hours before further dilution into 3 volumes refolding buffer II (refolding buffer I with 0.5 M urea 0.5 mM GSH, 0.05 mM GSSG, 2 mM CaCl2) over another 24 hours. Dialysis was performed as previously described (with additional 2 mM CaCl2 to reduce aggregation) before concentration using UNO sphere Q (Biorad) eluting with tris buffered saline (pH 7.5)/2 mM CaCl2. Subsequently, the material was purified to apparent homogeneity (according to coomassie blue stained SDS PAGE) by gel filtration using Sephacryl S-200 (GE Health Care) pre-equilibrated with 50 mM Tris-HCl pH 7.5, 20 mM NaCl and 2 mM CaCl2.
All enzymes and substrates were obtained from Sigma Chemicals if not otherwise specified. Bacterially expressed human KLK4 (37 ng), bovine β-trypsin (20 ng), bovine thrombin (20 ng), bovine α-chymotrypsin (0.5 μg), protease (0.5 μg; Streptomyces griseus type XIV), bovine plasminogen (0.5 μg), and human matriptase (30 ng; R&D Systems) were incubated with various concentrations of inhibitors in 200 μL assay buffer for 10 minutes prior to initiation by the addition of 100 μL of 0.3 mM of peptide-pNA substrates (FVQR-pNA: KLK4; BAPNA: trypsin, (Streptomyces griseus Type XIV Protease and bovine plasma plasminogen); Bz-Phe-Val-Arg-pNA: thrombin and matriptase; Trp-pNA: α-chymotrypsin; Leu-pNA: (Streptomyces griseus Type XIV Protease and bovine plasma plasminogen). The release of pNa moiety was monitored as described above for 7 minutes with each point being the average of three independent triplicate reactions. IC50 was determined using the Prism 5 software suite (GraphPad software Inc.).

[5] = comparison value, source not given; cited from earlier work
[6] = substrate: CC(=O)N[C@@H](Cc1ccccc1)C(=O)N[C@H](C(=O)N[C@@H](CCCNC(=N)N)C(=O)Nc1ccc([N+](=O)[O-])cc1)C(C)C; experiment: Kinetic studies of para-nitroanilide substrates with KLK4; assay type: biochemical, human; settings: other: para-Nitroanilide substrate
Procedure: as §2
(§3) Kinetic Studies Active site titration was carried out according to Beynon et al., replacing α1-proteinase inhibitor with soybean trypsin inhibitor. Enzymatic activity assays were performed with 4.9 nM KLK4 and substrate concentrations in the range of 0-600 μM in 300 μL of assay buffer with hydrolysis monitored over 5 minutes as described for the substrate screen. The data was fitted to the Michaelis-Menten equation by […] analysis using the Prism 5 software suite (GraphPad Software Inc.).

[7] = substrate: CC(C)[C@H](NC(=O)[C@H](Cc1ccccc1)NC(=O)c1ccccc1)C(=O)N[C@@H](CCCNC(=N)N)C(=O)Nc1ccc([N+](=O)[O-])cc1; experiment: as above; assay type: biochemical, human; settings: other: para-Nitroanilide substrate
Procedure: as §2, §3

[8] = substrate: CSCC[C@H](NC(=O)[C@@H](NC(=O)[C@@H](N)Cc1ccccc1)C(C)C)C(=O)N[C@@H](CCCNC(=N)N)C(=O)Nc1ccc([N+](=O)[O-])cc1; experiment: as above; assay type: biochemical, human; settings: other: para-Nitroanilide substrate
Procedure: as §2, §3

KLK14, sequence (Q9P0G3 35-267 limits assumed): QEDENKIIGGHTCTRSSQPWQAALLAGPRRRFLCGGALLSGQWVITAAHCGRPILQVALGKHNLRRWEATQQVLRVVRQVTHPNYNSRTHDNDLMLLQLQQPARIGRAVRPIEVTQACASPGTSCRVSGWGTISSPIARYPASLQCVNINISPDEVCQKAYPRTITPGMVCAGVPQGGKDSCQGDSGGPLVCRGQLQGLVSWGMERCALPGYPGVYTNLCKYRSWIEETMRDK
KLK12, sequence (Q9UKR0 18-248): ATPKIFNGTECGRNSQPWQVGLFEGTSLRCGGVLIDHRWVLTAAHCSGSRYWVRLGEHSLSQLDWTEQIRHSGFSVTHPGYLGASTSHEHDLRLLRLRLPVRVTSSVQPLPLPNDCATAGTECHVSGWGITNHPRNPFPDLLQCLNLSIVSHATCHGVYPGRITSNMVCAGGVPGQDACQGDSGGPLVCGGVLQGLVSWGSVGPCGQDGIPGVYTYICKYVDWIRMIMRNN
T2 sequence (Q9P0G3 41-267): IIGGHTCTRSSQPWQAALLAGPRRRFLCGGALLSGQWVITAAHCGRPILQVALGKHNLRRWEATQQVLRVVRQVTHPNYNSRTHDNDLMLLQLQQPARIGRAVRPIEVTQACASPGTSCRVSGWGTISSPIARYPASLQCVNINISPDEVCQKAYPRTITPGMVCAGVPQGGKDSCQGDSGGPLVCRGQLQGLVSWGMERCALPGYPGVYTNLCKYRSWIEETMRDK

Molecule: CC(=O)N[C@@H](Cc1ccccc1)C(=O)N[C@H](C(=O)N[C@@H](CCCNC(=N)N)C(=O)Nc1ccc([N+](=O)[O-])cc1)C(C)C [Ac-FVR-pNA] (Ac-Phe-Val-Arg-pNA)
- reduction of kcat (KLK4 [1]): 47%

Molecule: CC[C@H](C)[C@@H]1NC(=O)[C@@H]2CCCN2C(=O)[C@@H]2CCCN2C(=O)[C@H]([C@@H](C)CC)NC(=O)[C@H](CO)NC(=O)[C@H](CCCNC(=N)N)NC(=O)[C@H](CCC(N)=O)NC(=O)[C@@H]2CSSC[C@H](NC1=O)C(=O)N[C@@H](Cc1ccccc1)C(=O)N1CCC[C@H]1C(=O)N[C@@H](CC(N)=O)C(=O)NCC(=O)N[C@@H](Cc1ccccc1)C(=O)N2 [SFTI-FCQR Asn14] (cyclo(GFCQRSIPPICFPN); disulfide 3-11)
- IC50 (iKLK14): 0.251 ± 0.00665 µM
- IC50 (bovine β-trypsin; read-out: IC50): 2.58 ± 0.508 µM
- IC50 (bovine thrombin): > 10 µM
- IC50 (human matriptase): > 10 µM
- IC50 (bovine α-chymotrypsin): > 10 µM
- IC50 [2]: > 10 µM
- inhibition of KLK12 digestion of fibrinogen (KLK12): did not inhibit
- inhibition of KLK14 digestion of fibrinogen (KLK14): did not inhibit
- half life of inhibition (in words) [3]: in the order of days
- Half-life (Figure 3 (D)): 70 h
- IC50 (KLK4 [4]): 0.063 ± 0.002 nM

Molecule: CC[C@H](C)[C@@H]1NC(=O)[C@@H]2CCCN2C(=O)[C@@H]2CCCN2C(=O)[C@H]([C@@H](C)CC)NC(=O)[C@H](CO)NC(=O)[C@H](CCCNC(=N)N)NC(=O)[C@H](CCC(N)=O)NC(=O)[C@@H]2CSSC[C@H](NC1=O)C(=O)N[C@@H](Cc1ccccc1)C(=O)N1CCC[C@H]1C(=O)N[C@@H](CCCCN)C(=O)NCC(=O)N[C@@H](Cc1ccccc1)C(=O)N2 [SFTI-FCQR Lys14] (cyclo(GFCQRSIPPICFPK); disulfide 3-11)
- IC50 (bovine β-trypsin): Inhibitor degraded
- IC50 (bovine thrombin): > 10 µM
- IC50 (human matriptase): > 10 µM
- IC50 (bovine α-chymotrypsin): > 10 µM
- IC50 [2]: > 10 µM
- half life of inhibition (in words) [3]: curtailed half life
- Half-life (Figure 3 (D)): 9 h and 10 h
- IC50 against KLK4 compared with SFTI-FCQR Asn14 (KLK4 [4]; substrate FVQR-pNA): nearly three orders of magnitude higher
- IC50 (KLK4 [4]; substrate FVQR-pNA (0.2 mM), read-out: IC50): 98.9 ± 4.09 nM

Molecule: CC(C)c1nc(CN(C)C(=O)N[C@H](C(=O)N[C@@H](Cc2ccccc2)C[C@H](O)[C@H](Cc2ccccc2)NC(=O)OCc2cncs2)C(C)C)cs1 [ritonavir]
- half life [5]: 3.8 h

B1: KLK4 (Homo sapiens) (protein)
chain: IINGEDCSPHSQPWQAALVMENELFCSGVLVHPQWVLSAAHCFQNSYTIGLGLHSLEADQEPGSQMVEASLSVRHPEYNRPLLANDLMLIKLDESVSESDTIRSISIASQCPTAGNSCLVSGWGLLANGRMPTVLQCVNVSVVSEEVCSKLYDPLYHPSMFCAGGGHDQKDSCNGDSGGPLICNGYLQGLVSFGKAPCGQVGVPGVYTNLCKFTEWIEKTVQAS
notes: pro-region of PSA (KLK3), replacing the native KLK4 pro-region (only if the E. coli preparation was used) (N, cleaved yes); made in house
- Km [6]: 194.9 ± 41.4 µM
- kcat [6]: 0.3 ± 0.032 s⁻¹
- kcat/Km [6]: 1540 ± 240 M⁻¹ s⁻¹
- Km [7]: 42.5 ± 5.9 µM
- kcat [7]: 0.57 ± 0.031 s⁻¹
- kcat/Km [7]: 13400 ± 1500 M⁻¹ s⁻¹
- Km [8]: 74.7 ± 10.3 µM
